This note sets out measurements from BindingDB's records for doi:10.1021/jm050680m (Johnson & Johnson Pharmaceutical Research and Development, 2005).

A short description of assay [1]: Antiproliferative activity against PDGF-BB stimulated HCASMC.
Assay in assay [2]: as above
This is another data set of the same source.

Each structure is given as a SMILES string.

For `COC(=O)c1cccc(Nc2[nH]nc3c2Cc2cc(OC)c(OC)cc2-3)c1` [3-carbomethoxy-N-(6,7-dimethoxy-2,4-dihydroindeno[1,2-c]pyrazol-3-yl)phenylamine], in assay [1], the IC50 (in general, the midpoint of a concentration-inhibition curve) was determined as 11 nM.
In assay [2], `COc1cc2c(cc1OC)-c1n[nH]c(Nc3cccc(Br)c3)c1C2` [3-bromo-N-(6,7-dimethoxy-2,4-dihydroindeno[1,2-c]pyrazol-3-yl)phenylamine] gave an IC50 of 32 nM.
As for `COc1cc2c(cc1OC)-c1n[nH]c(Nc3cccc(F)c3)c1C2` [JNJ-10198409], the IC50 in assay [1] came to 3 nM.
Same read-out and setting: the result for `COc1cccc2c1Cc1c-2n[nH]c1Nc1ccccc1` [(5-methoxy-2,4-dihydroindeno[1,2-c]pyrazol-3-yl)phenylamine] reads 487 nM; that for `COc1cc2c(cc1OC)-c1n[nH]c(Nc3cccc(C(F)(F)F)c3)c1C2` [3-trifluoromethyl-N-(6,7-dimethoxy-2,4-dihydroindeno[1,2-c]pyrazol-3-yl)phenylamine], 1 nM.
